These results are taken from patent publication US20250179440A1, “METHOD FOR CULTURING CANCER ORGANOID AND METHOD FOR SCREENING TEST SUBSTANCE” (TOPPAN Holdings Inc., priority 2022, published 2025).

For this experiment, the system named is blood vessel network of the cell structure (HUVEC/NHDF). The experiment is described as follows: Blood vessel network formation in the cell structure co-cultured with PDOs (anti-CD31 immunostaining). The note with it: added factor of EGM2 added singly to DMEM and EBM2; FIGS. 9 and 10. It is filed as cell-based, human. How it is done:
The pre-culture of the patient-derived PDOs and the preparation of the cell structure were performed by the same method as in Example 1. For the co-culture of the PDOs and the cell structure, a method for top surface culture of the cell structure using single-celled PDOs was adopted. In addition, regarding the sample for which the culture was continued, the co-culture of the PDOs and the cell structure was performed by the same method as in Example 1, except that the medium was replaced using each medium at a timing of once every three or four days. Fluorescence immunostaining, image capturing, and image analysis were performed by the same methods as in Example 1. Next, in order to identify the inhibitory factors among the added factors, media obtained by adding each of the added factors of EGM2 shown in Table 7 to D-MEM and EBM2, and media obtained by excluding each of the added factors shown in Table 7 from EGM2 were prepared, and vascular network evaluation was performed. The scale bars in FIGS. 9 and 10 indicate 500 μm. […] In FIG. 10, +means that the added factor is included, and −means that the added factor is excluded.

For `C[C@]12CCC(=O)C=C1CC[C@@H]1[C@@H]2[C@@H](O)C[C@@]2(C)[C@H]1CC[C@]2(O)C(=O)CO` [Hydrocortisone], the “formation of the blood vessel network” value was “the formation of the blood vessel network was suppressed”.
